Laboratory results taken from patent US11613558B2, “Peptides and pharmaceutical compositions for treating eye diseases” (Yuyu Pharma, Inc., priority 2018, dated 2023).
Square brackets hold non-standard residues; d marks the D form. Peptide text beside a SMILES is read from it. ξ: configuration not given here. Hyp = O=C(O)[C@@H]1C[C@@H](O)CN1; Ile(3ξ) = CCC(C)[C@H](N)C(=O)O; Thr(3ξ) = CC(O)[C@H](N)C(=O)O

Assays:
[1] = tested on: rats with dry eye syndrome (extraorbital lacrimal gland excision, ELGE); test: Amount of tear secretion (Schirmer test, cobalt chloride paper) in ELGE rats with dry eye syndrome; type: in vivo, rat; conditions: for Change in amount of tear secretion as compared with the ELGE control group: 3% solution as printed, after administration for 14 days; for Tear Volumes, Day 7 / Tear Volumes, Day 14: Table 4, study of YDE-001 to YDE-028, ELGE rats, 3 mg/ml, 5 μl/eye twice daily; for Tear Volumes, Day 7: day 7 of administration; for Tear Volumes, Day 14: day 14 of administration
Description: (§1) In order to evaluate the eye protection effect on dry eye syndrome by YDE-001 to YDE-028 prepared in Example 1, a total of 320 Sprague-Dawley-type male rats (OrientBio, Seungnam, Korea) were adapted for 7 days. Thereafter, dry eye syndrome was induced in 264 test rats through extraorbital lacrimal gland excision (hereinafter, ELGE). 8 test rats without the eye abnormality were subjected to a sham operation as a control group.
(§2) The rat was systemically anesthetized by inhaling a mixed gas of 2% to 3% of isoflurane (Hana Pharm. Co., Hwasung, Korea), 70% of N2O, and 28.6% of O2 using a rodent anesthesia machine (Surgivet, Waukesha, Wis., USA) and a ventilator (Model 687, Harvard Apparatus, Cambridge, UK). Thereafter, the extraorbital lacrimal gland located in the subdermal area above the masseter muscle and […] was excised through a transverse incision in a size of 10 mm on the anterior part of the left ear tragus. The skin was sutured by a general method. […] After 6 days from the ELGE operation, it was checked through the Schirmer test by measuring the amount of tear secretion whether dry eye syndrome had been induced. Meanwhile, each rat of the control group with the sham operation was checked for the presence and location of the extraorbital lacrimal gland through a skin incision, and the skin was then sutured without the excision thereof (FIG. 4).
(§3) In addition, in order to evaluate the eye protection effect on dry eye syndrome by YDE-029 to YDE-043 prepared in Example 1, a total of 200 Sprague-Dawley-type male rats (OrientBio, Seungnam, Korea) were adapted for 7 days. Dry eye syndrome was induced in 165 test rats through the ELGE. 8 test rats without the eye abnormality were subjected to the sham operation as a control group. The ELGE was carried out as described above.
(§4) For YDE-001 to YDE-028, YY-102 and the 28 YDE-series were each dissolved in physiological saline at a concentration of 3 mg/ml and administered at a dose of 5 μl/eye at 9:30 am and 3:30 pm daily for 14 days after 7 days from the ELGE operation for a total of 28 times. The DS solution was dissolved in physiological saline at a concentration of 30 mg/ml and administered at a dose of […] twice a day for 14 days after 7 days from the ELGE operation for a total of 28 times. For the sham control and the ELGE control groups, the same stimulation as the administration was applied. In order to prevent excessive eye dryness, the same volume of physiological saline was applied in the same manner in place of the test substances.
as §4, with “Further, for YDE-029 to YDE-043,” for “For YDE-001 to YDE-028,”, “YDE-029 to YDE-043, YY-102 and” for “YDE-001 to YDE-028, YY-102 and”, “and the 15 YDE-series were” for “and the 28 YDE-series were”, “the test substances (FIG. 7).” for “the test substances.”
After 6 days from the ELGE surgery, the changes in the amount of tear secretion were measured at day 7 and day 14 after the administration of YDE-001 to YDE-043. The amount of tear secretion was measured by the […] travel distance of tears absorbed by cobalt chloride paper in a size of 1×15 mm (Toyo Roshi Kaisha, Japan).
The cobalt chloride paper was placed in the lateral canthus of a rat for 60 seconds to absorb tears (FIG. 9). The length of the area absorbed from the corner of the cobalt chloride paper was measured with an electronic digital caliper (Mytutoyo, Tokyo, Japan) (FIG. 8).

[2] = Stability in aqueous solution under long-term storage conditions (related substances); type: physicochemical; conditions: 25° C., 75% RH
Description: In order to confirm the stability of each test substance in an aqueous solution, […] of each sample was dissolved in 1 ml of water to a concentration of 1 mg/ml, which was then charged to a glass vial, plugged with a rubber cap, sealed with an aluminum cap, and stored under long-term storage conditions (25° C., 75% RH). The stability of the test substance was evaluated by measuring the amount of related substances at the time of one week, two weeks, four weeks, eight weeks, and twelve weeks under the long-term storage conditions.

[3] = tested on: cornea of rats with dry eye syndrome (ELGE); test: Corneal permeability of fluorescent dye (corneal damage) in ELGE rats with dry eye syndrome; type: in vivo, rat; conditions: Table 6, study of YDE-001 to YDE-028, 3 mg/ml, 5 μl/eye twice daily, day 14
Description: as §1, §2, §3, §4
as §4, with “Further, for YDE-029 to YDE-043,” for “For YDE-001 to YDE-028,”, “YDE-029 to YDE-043, YY-102 and” for “YDE-001 to YDE-028, YY-102 and”, “and the 15 YDE-series were” for “and the 28 YDE-series were”, “the test substances (FIG. 7).” for “the test substances.”
After YDE-001 to YDE-028 were each administered to the eyes […], the changes in the corneal permeability were checked.
In order to measure the corneal permeability, Zolethyl 50™ (Virbac Lab., Carros, France), an animal anesthetic, was intraperitoneally injected at a dose of 25 mg/kg. Thereafter, saline containing a 1% (v/v) fluorescent solution (fluorescein sodium salt, Tokyo Kasei Kogyo Co., Tokyo, Japan) was applied to the eyes at a dose of 5 μl/eye. The eyes thus treated were closed and fixed with a tape. After 1 hour, the remaining fluorescent solution was removed using a cotton swab (FIG. 12). […]

Amount of related substances (after 12 weeks) [2] | SMILES | Change in amount of tear secretion as compared with the ELGE control group ([1]; study of YDE-001 to YDE-028) | Change in amount of tear secretion as compared with the ELGE control group ([1]; study of YDE-029 to YDE-043) | Permeability of fluorescent dye [3] | Tear Volumes, Day 7 [1] | Tear Volumes, Day 14 [1]
3.67% | CC(C)C[C@H](NC(=O)CNC(=O)[C@H](CO)NC(=O)[C@H](CCC(N)=O)NC(=O)CNC(=O)[C@@H]1C[C@@H](O)CN1)C(=O)N[C@@H](C)C(=O)NCC(=O)N1CCC[C@H]1C(=O)N[C@@H](CCCCN)C(=O)O [YDE-006] (H-[Hyp]GQSGLAGPK-OH) | – | – | 33.23 ± 13.26% | 3.44 ± 1.69 mm^3 | 5.35 ± 1.68 mm^3
3.76% | CC(C)C[C@H](NC(=O)CNC(=O)[C@@H](NC(=O)[C@H](CCC(N)=O)NC(=O)CNC(=O)[C@@H]1C[C@@H](O)CN1)C(C)O)C(=O)N[C@@H](C)C(=O)NCC(=O)N1CCC[C@H]1C(=O)N[C@@H](CCCCN)C(=O)O (stereo partly shown) [YDE-007] (H-[Hyp]GQ[Thr(3ξ)]GLAGPK-OH) | – | – | 32.79 ± 10.77% | 3.91 ± 1.28 mm^3 | 5.45 ± 1.26 mm^3
4.42% | CC(C)C[C@H](NC(=O)CNC(=O)[C@H](C)NC(=O)[C@H](CCC(N)=O)NC(=O)CNC(=O)[C@@H]1C[C@@H](O)CN1)C(=O)N[C@@H](C)C(=O)NCC(=O)N1CCC[C@H]1C(=O)N[C@@H](CCCCN)C(=O)O [YDE-008] (H-[Hyp]GQAGLAGPK-OH) | – | – | 20.32 ± 11.87% | 4.57 ± 1.25 mm^3 | 6.10 ± 2.36 mm^3
4.71% | CC(C)C[C@H](NC(=O)CNC(=O)[C@@H](NC(=O)[C@H](CCC(N)=O)NC(=O)CNC(=O)[C@@H]1C[C@@H](O)CN1)C(C)C)C(=O)N[C@@H](C)C(=O)NCC(=O)N1CCC[C@H]1C(=O)N[C@@H](CCCCN)C(=O)O [YDE-009] (H-[Hyp]GQVGLAGPK-OH) | did not show any significant changes | – | 41.50 ± 7.86% | 3.76 ± 1.21 mm^3 | 4.54 ± 1.11 mm^3
4.39% | CCC(C)[C@H](NC(=O)[C@H](CCC(N)=O)NC(=O)CNC(=O)[C@@H]1C[C@@H](O)CN1)C(=O)NCC(=O)N[C@@H](CC(C)C)C(=O)N[C@@H](C)C(=O)NCC(=O)N1CCC[C@H]1C(=O)N[C@@H](CCCCN)C(=O)O (stereo partly shown) [YDE-010] (H-[Hyp]GQ[Ile(3ξ)]GLAGPK-OH) | did not show any significant changes | – | 49.29 ± 12.06% | 3.42 ± 1.31 mm^3 | 4.35 ± 1.36 mm^3
3.57% | CC(C)C[C@H](NC(=O)CNC(=O)[C@H](Cc1ccccc1)NC(=O)[C@H](CCC(N)=O)NC(=O)CNC(=O)[C@@H]1C[C@@H](O)CN1)C(=O)N[C@@H](C)C(=O)NCC(=O)N1CCC[C@H]1C(=O)N[C@@H](CCCCN)C(=O)O [YDE-012] (H-[Hyp]GQFGLAGPK-OH) | – | – | 31.01 ± 11.38% | 3.68 ± 0.99 mm^3 | 5.67 ± 1.86 mm^3
5.92% | CC(C)C[C@H](NC(=O)CNC(=O)[C@H](Cc1ccc(O)cc1)NC(=O)[C@H](CCC(N)=O)NC(=O)CNC(=O)[C@@H]1C[C@@H](O)CN1)C(=O)N[C@@H](C)C(=O)NCC(=O)N1CCC[C@H]1C(=O)N[C@@H](CCCCN)C(=O)O [YDE-013] (H-[Hyp]GQYGLAGPK-OH) | – | – | 32.24 ± 7.84% | 5.27 ± 1.50 mm^3 | 5.49 ± 1.92 mm^3

Second part, the compound before the results:

SMILES | Amount of related substances (after 12 weeks) [2] | Change in amount of tear secretion as compared with the ELGE control group ([1]; study of YDE-001 to YDE-028) | Change in amount of tear secretion as compared with the ELGE control group ([1]; study of YDE-029 to YDE-043) | Permeability of fluorescent dye [3] | Tear Volumes, Day 7 [1] | Tear Volumes, Day 14 [1]
O=c1ccn([C@@H]2O[C@H](COP(=O)(O)OP(=O)(O)OP(=O)(O)OP(=O)(O)OC[C@H]3O[C@@H](n4ccc(=O)[nH]c4=O)[C@H](O)[C@@H]3O)[C@@H](O)[C@H]2O)c(=O)[nH]1 [DS, diquafosol sodium, reference compound] | – | increased | increased | – | – | –
CC(C)C[C@H](NC(=O)CNC(=O)[C@H](CCC(=O)O)NC(=O)[C@H](CCC(N)=O)NC(=O)CNC(=O)[C@@H]1C[C@@H](O)CN1)C(=O)N[C@@H](C)C(=O)NCC(=O)N1CCC[C@H]1C(=O)N[C@@H](CCCCN)C(=O)O [YDE-001] (H-[Hyp]GQEGLAGPK-OH) | 3.92% | – | – | 25.49 ± 11.62% | 4.88 ± 1.62 mm^3 | 5.92 ± 2.19 mm^3
CC(C)C[C@H](NC(=O)CNC(=O)[C@H](CC(N)=O)NC(=O)[C@H](CCC(N)=O)NC(=O)CNC(=O)[C@@H]1C[C@@H](O)CN1)C(=O)N[C@@H](C)C(=O)NCC(=O)N1CCC[C@H]1C(=O)N[C@@H](CCCCN)C(=O)O [YDE-002] (H-[Hyp]GQNGLAGPK-OH) | 4.93% | – | – | 38.26 ± 11.25% | 3.84 ± 1.16 mm^3 | 5.01 ± 1.67 mm^3
CC(C)C[C@H](NC(=O)CNC(=O)[C@H](CCC(N)=O)NC(=O)[C@H](CCC(N)=O)NC(=O)CNC(=O)[C@@H]1C[C@@H](O)CN1)C(=O)N[C@@H](C)C(=O)NCC(=O)N1CCC[C@H]1C(=O)N[C@@H](CCCCN)C(=O)O [YDE-003] (H-[Hyp]GQQGLAGPK-OH) | 6.86% | – | – | 40.45 ± 6.46% | 4.13 ± 1.76 mm^3 | 4.88 ± 1.57 mm^3
CC(C)C[C@H](NC(=O)CNC(=O)[C@H](Cc1cnc[nH]1)NC(=O)[C@H](CCC(N)=O)NC(=O)CNC(=O)[C@@H]1C[C@@H](O)CN1)C(=O)N[C@@H](C)C(=O)NCC(=O)N1CCC[C@H]1C(=O)N[C@@H](CCCCN)C(=O)O [YDE-004] (H-[Hyp]GQHGLAGPK-OH) | 2.11% | – | – | 35.05 ± 11.74% | 3.42 ± 1.06 mm^3 | 5.19 ± 1.84 mm^3
CC(C)C[C@H](NC(=O)CNC(=O)[C@H](CCCCN)NC(=O)[C@H](CCC(N)=O)NC(=O)CNC(=O)[C@@H]1C[C@@H](O)CN1)C(=O)N[C@@H](C)C(=O)NCC(=O)N1CCC[C@H]1C(=O)N[C@@H](CCCCN)C(=O)O [YDE-005] (H-[Hyp]GQKGLAGPK-OH) | 2.97% | – | – | 37.98 ± 11.53% | 3.85 ± 0.93 mm^3 | 5.08 ± 1.91 mm^3
